Patent EP4722207A1, “OXOISOINDOLINYL-SUBSTITUTED TETRAHYDROPYRIMIDINEDIONE DERIVATIVE AND USE THEREOF” (Gluetacs Therapeutics (Shanghai) Co., Ltd., priority 2023, dated 2024)

Assays:
GSPT1 = target: T1, GSPT1 (Homo sapiens, UniProt P15170+Q96SW2); assay: Western-blot assay, substrate protein degradation in hPBMCs: GSPT1; assay type: cell-based; settings: for GSPT1 substrate protein remaining %: compounds at 50 nM and 500 nM, 24 hours; for substrate protein remaining % GSPT1: 24 hours of compound treatment, 50 nM and 500 nM
T1 construct: effects of the compounds of the present disclosure on the expression of target proteins in cells; endogenous in cells; host or cells: human PBMCs (hPBMCs)

IKZF1 = target: T2, IKZF1 (Homo sapiens, UniProt Q13422+Q96SW2); assay: Western-blot assay, substrate protein degradation in hPBMCs: IKZF1; assay type: cell-based; settings: for IKZF1 substrate protein remaining %: compounds at 50 nM and 500 nM, 24 hours; for substrate protein remaining % IKZF1: 24 hours of compound treatment, 50 nM and 500 nM
T2 construct: effects of the compounds of the present disclosure on the expression of target proteins in cells; endogenous in cells; host or cells: human PBMCs (hPBMCs)
T2 sequence (Q13422 whole entry): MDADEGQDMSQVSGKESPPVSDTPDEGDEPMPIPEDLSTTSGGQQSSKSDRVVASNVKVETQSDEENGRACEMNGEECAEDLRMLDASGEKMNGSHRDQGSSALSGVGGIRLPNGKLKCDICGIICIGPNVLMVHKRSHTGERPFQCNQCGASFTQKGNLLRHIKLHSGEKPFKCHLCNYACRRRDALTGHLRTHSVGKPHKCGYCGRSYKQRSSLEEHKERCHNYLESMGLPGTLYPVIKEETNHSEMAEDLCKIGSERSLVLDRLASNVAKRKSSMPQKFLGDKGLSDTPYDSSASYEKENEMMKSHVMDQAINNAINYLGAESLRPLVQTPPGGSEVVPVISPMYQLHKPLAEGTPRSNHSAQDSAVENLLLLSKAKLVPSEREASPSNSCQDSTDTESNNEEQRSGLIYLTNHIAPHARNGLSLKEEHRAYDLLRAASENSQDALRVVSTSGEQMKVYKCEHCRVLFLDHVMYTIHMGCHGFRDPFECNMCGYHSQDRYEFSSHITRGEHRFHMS
T2 sequence (Q96SW2 whole entry): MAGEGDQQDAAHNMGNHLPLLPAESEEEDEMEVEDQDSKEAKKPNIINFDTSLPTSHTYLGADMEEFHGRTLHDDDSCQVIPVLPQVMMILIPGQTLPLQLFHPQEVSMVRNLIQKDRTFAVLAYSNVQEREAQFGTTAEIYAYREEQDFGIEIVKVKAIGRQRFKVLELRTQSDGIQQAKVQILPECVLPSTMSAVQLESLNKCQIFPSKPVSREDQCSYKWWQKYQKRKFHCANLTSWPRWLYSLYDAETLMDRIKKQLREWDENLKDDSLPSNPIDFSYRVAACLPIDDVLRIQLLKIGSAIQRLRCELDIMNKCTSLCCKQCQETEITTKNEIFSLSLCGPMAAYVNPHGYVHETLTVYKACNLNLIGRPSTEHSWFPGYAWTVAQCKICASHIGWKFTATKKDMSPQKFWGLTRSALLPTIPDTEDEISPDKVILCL
T2 sequence (Q16531 whole entry partner): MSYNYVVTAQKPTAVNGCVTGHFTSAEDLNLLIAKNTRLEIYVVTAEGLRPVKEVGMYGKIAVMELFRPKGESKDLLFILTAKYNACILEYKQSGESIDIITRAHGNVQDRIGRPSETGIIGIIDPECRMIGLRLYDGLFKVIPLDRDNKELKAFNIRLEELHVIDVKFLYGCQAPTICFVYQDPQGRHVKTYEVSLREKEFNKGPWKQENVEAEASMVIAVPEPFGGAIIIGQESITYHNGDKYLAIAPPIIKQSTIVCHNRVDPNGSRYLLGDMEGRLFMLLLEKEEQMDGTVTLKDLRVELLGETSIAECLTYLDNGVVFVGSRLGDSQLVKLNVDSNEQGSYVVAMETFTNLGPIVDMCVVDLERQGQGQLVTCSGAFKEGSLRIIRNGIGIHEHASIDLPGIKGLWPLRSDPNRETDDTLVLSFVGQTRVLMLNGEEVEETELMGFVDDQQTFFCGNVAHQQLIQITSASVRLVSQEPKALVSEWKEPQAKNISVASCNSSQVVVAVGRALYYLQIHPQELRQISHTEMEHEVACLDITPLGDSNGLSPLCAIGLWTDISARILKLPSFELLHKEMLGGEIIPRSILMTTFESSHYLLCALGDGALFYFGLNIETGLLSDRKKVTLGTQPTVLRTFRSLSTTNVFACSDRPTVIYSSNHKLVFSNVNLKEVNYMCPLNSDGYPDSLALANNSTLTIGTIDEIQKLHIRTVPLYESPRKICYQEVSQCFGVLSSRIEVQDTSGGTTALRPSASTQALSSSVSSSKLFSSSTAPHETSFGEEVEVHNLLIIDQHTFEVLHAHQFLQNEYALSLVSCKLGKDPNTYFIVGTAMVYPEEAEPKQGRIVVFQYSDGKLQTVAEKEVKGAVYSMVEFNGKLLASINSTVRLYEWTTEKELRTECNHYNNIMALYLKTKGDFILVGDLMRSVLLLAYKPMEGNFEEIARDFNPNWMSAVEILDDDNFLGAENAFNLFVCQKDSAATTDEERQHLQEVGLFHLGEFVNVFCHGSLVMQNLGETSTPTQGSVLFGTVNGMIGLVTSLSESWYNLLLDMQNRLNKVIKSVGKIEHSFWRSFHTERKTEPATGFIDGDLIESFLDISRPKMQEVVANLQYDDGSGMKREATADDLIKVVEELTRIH

IKZF3 = target: T3, IKZF3 (Homo sapiens, UniProt Q96SW2+Q9UKT9); assay: Western-blot assay, substrate protein degradation in hPBMCs: IKZF3; assay type: cell-based; settings: for IKZF3 substrate protein remaining %: compounds at 50 nM and 500 nM, 24 hours; for substrate protein remaining % IKZF3: 24 hours of compound treatment, 50 nM and 500 nM
T3 construct: effects of the compounds of the present disclosure on the expression of target proteins in cells; endogenous in cells; host or cells: human PBMCs (hPBMCs)
T3 sequence (Q9UKT9 whole entry): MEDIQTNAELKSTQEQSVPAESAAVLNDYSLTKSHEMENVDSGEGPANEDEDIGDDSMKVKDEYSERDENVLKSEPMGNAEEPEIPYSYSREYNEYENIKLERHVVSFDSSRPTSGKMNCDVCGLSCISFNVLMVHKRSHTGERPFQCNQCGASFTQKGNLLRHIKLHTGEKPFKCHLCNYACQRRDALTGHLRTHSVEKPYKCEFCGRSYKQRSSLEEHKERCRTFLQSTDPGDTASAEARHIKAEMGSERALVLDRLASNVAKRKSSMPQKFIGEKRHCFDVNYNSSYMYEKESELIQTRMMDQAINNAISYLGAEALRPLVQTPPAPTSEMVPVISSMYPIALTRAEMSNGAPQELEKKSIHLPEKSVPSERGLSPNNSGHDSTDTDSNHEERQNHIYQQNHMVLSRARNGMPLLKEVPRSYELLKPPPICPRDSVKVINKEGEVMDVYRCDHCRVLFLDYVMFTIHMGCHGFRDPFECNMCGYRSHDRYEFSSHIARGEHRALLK
T3 sequence (Q96SW2 whole entry): as the sequence (Q96SW2 whole entry) above
T3 sequence (Q16531 whole entry partner): as the sequence (Q16531 whole entry partner) above

IKZF2 = target: T4, IKZF2 (Homo sapiens, UniProt Q96SW2+Q9UKS7); assay: Western-blot assay, substrate protein degradation in hPBMCs: IKZF2; assay type: cell-based; settings: for IKZF2 substrate protein remaining %: compounds at 50 nM and 500 nM, 24 hours; for substrate protein remaining % IKZF2: 24 hours of compound treatment, 50 nM and 500 nM
T4 construct: effects of the compounds of the present disclosure on the expression of target proteins in cells; endogenous in cells; host or cells: human PBMCs (hPBMCs)
T4 sequence (Q9UKS7 whole entry): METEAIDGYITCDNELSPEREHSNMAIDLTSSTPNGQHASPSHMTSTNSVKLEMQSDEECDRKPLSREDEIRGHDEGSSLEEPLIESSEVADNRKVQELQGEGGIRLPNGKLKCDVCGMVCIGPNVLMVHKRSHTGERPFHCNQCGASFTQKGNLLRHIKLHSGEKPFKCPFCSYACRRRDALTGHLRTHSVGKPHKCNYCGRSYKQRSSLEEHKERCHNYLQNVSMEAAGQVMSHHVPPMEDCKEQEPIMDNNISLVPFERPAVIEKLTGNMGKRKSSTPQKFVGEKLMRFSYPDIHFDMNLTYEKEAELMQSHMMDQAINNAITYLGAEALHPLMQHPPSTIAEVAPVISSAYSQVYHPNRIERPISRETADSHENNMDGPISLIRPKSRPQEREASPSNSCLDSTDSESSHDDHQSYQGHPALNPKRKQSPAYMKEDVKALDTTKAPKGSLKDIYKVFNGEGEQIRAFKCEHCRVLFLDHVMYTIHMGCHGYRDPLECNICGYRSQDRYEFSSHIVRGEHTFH
T4 sequence (Q96SW2 whole entry): as the sequence (Q96SW2 whole entry) above
T4 sequence (Q16531 whole entry partner): as the sequence (Q16531 whole entry partner) above

CK1α = target: T5, CK1α (Homo sapiens, UniProt P48729+Q96SW2); assay: Western-blot assay, substrate protein degradation in hPBMCs: CK1α; assay type: cell-based; settings: for CK1α substrate protein remaining %: compounds at 50 nM and 500 nM, 24 hours; for substrate protein remaining % CK1α: 24 hours of compound treatment, 50 nM and 500 nM
T5 construct: effects of the compounds of the present disclosure on the expression of target proteins in cells; endogenous in cells; host or cells: human PBMCs (hPBMCs)
T5 sequence (P48729 whole entry): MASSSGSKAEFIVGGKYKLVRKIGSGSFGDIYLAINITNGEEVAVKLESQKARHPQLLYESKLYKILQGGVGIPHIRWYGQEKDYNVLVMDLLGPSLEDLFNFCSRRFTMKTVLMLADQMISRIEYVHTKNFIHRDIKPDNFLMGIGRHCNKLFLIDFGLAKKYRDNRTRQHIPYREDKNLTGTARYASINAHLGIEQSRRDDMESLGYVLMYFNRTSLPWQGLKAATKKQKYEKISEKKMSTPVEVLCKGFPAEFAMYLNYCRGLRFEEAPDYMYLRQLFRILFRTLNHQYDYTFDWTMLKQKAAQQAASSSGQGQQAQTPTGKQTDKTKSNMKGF
T5 sequence (Q96SW2 whole entry): as the sequence (Q96SW2 whole entry) above
T5 sequence (Q16531 whole entry partner): as the sequence (Q16531 whole entry partner) above

MM.1S = assay: Cell viability assay (CellTiter-Meiluncell Luminescent), tumor cell proliferation, MM.1S; settings: Homo sapiens, MM1.S, 96 h; for IC50: read-out: inhibitory activity (IC50, nM) against tumor cells proliferation, MM.1S; for inhibition at 0.01 µM: read-out: Inhibition Rate at 10 nM (%); for inhibition at 0.5 µM: read-out: Inhibition Rate at 500 nM (%)
WEE1 = target: T6, WEE1 (Homo sapiens, UniProt P30291+Q96SW2); assay: Western-blot assay, substrate protein degradation in hPBMCs: WEE1; assay type: cell-based; settings: for WEE1 substrate protein remaining %: compounds at 50 nM and 500 nM, 24 hours; for substrate protein remaining % WEE1: 24 hours of compound treatment, 50 nM and 500 nM
T6 construct: effects of the compounds of the present disclosure on the expression of target proteins in cells; endogenous in cells; host or cells: human PBMCs (hPBMCs)
T6 sequence (P30291 whole entry): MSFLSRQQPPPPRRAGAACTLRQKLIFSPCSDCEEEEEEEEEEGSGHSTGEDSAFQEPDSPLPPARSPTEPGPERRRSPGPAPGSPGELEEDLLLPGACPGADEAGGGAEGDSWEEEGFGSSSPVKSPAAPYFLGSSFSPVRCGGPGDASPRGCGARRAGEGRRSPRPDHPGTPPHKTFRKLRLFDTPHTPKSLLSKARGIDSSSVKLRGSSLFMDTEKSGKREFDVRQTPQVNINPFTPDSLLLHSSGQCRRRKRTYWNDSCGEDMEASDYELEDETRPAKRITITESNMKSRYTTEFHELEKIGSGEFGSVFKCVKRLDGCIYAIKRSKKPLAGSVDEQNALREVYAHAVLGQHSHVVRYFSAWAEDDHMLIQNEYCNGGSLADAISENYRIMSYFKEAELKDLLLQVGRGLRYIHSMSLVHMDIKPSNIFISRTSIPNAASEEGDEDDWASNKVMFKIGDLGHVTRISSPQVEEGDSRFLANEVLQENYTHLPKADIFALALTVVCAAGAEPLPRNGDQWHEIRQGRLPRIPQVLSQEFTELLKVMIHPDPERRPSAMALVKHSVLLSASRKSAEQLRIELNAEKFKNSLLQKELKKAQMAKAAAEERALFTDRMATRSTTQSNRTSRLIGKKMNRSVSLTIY
T6 sequence (Q96SW2 whole entry): as the sequence (Q96SW2 whole entry) above
T6 sequence (Q16531 whole entry partner): as the sequence (Q16531 whole entry partner) above

MGC803 = assay: Cell viability assay (CellTiter-Meiluncell Luminescent), tumor cell proliferation, MGC803; settings: Homo sapiens, MGC-803, 96 h, read-out: inhibitory activity (IC50, nM) against tumor cells proliferation, MGC803
Method: On the following day, the test compounds of the present disclosure were subjected to serial dilution. […] Subsequently, 0.5 µL of the test compound dilution was transferred into the 96-well plate containing the cells, with each well containing 100 µL of cell culture medium. […] Into the 96-well plate, the diluted test compounds and corresponding detection reagents were added, resulting in final test compound concentrations of 500 nM and 10 nM, respectively.
(§1) After the cells were treated with the compounds of the present disclosure for a specified period, the cell viability assay reagent was added to the culture medium according to the kit's instructions to determine cell viability. […] All controls were treated using the same procedure as the compounds of the present disclosure. The growth inhibition curves for the compounds of the present disclosure were plotted using Prism GraphPad software, and the IC50 values were calculated therefrom.

MV-4-11 = assay: Cell viability assay (CellTiter-Meiluncell Luminescent), tumor cell proliferation, MV-4-11; settings: Homo sapiens, MV4-11, 96 h; for inhibition at 0.01 µM: read-out: Inhibition Rate at 10 nM (%); for inhibition at 0.5 µM: read-out: Inhibition Rate at 500 nM (%)
Method: (§2) The tumor cells used herein were cultured in a cell culture medium listed in table 2 at 37°C in an incubator with 5% CO2. Prior to experimentation, all cell lines used were correctly identified by STR profiling, and tested negative for mycoplasma contamination using a mycoplasma detection kit through routine screenings.
(§3) On the following day, the test compounds of the present disclosure were subjected to serial dilution. […] Subsequently, 0.5 µL of the test compound dilution was transferred into the 96-well plate containing the cells, with each well containing 100 µL of cell culture medium. […] Into the 96-well plate, the diluted test compounds and corresponding detection reagents were added, resulting in final test compound concentrations of 500 nM and 10 nM, respectively. The experimental procedure is described below using the diluted 2 µM test compound as an example.
as §1

H2228 = assay: Cell viability assay (CellTiter-Meiluncell Luminescent), tumor cell proliferation, H2228; settings: Homo sapiens, NCI-H2228, 96 h; for inhibition at 0.01 µM: read-out: Inhibition Rate at 10 nM (%); for inhibition at 0.5 µM: read-out: Inhibition Rate at 500 nM (%)
Method: as §2, §3, §1

[1] = target: T7, human Cereblon WT GST-tagged protein (Homo sapiens, UniProt Q96SW2); assay: CRBN-binding affinity, CEREBLON BINDING kit (HTRF); settings: for inhibition at 0.5 µM: read-out: Inhibition Rate at 0.5 µM (%); for inhibition at 2 µM: read-out: Inhibition Rate at 2 µM (%)
T7 construct: purchased CISBIO 64BDCRBNPEH
T7 sequence (Q96SW2 whole entry): as the sequence (Q96SW2 whole entry) above
From the text: The CEREBLON BINDING kits (specification: 10,000 tests; product number: Catalog # 64BDCRBNPEH; CISBIO company) was used to determine the CRBN binding ability of the compounds to be tested through a HTRF method (homogeneous time-resolved fluorescence). The specific methods are as follows: • 1. […] Specifically, diluent #9 (1X) solution was used as the diluent, and multiple concentration gradients were set. […] Into the 96-well plate, the diluted test compounds and corresponding detection reagents were added, resulting in final test compound concentrations of 2 µM and 0.5 µM, respectively. […] Then, 2.5 µL of human Cereblon WT GST-tagged protein solution was added to each well. Finally, 5 µL of the thoroughly mixed Thalidomide-Re reagent and GST Eu antibody working solution were added to each of the aforementioned wells. […] The blank control wells were sequentially added with 2.5 µL of diluent #9 (1X) solution, 2.5 µL of binding buffer, and 5 µL of thoroughly mixed Thalidomide-Re reagent and GST Eu antibody working solution. • 4. […] OD 620 nm control is the absorbance value of the blank control well at an emission wavelength of 620 nm. […] OD 620 nm Std0 is the absorbance value of the solvent control well at an emission wavelength of 620 nm.

H292 = assay: Cell viability assay (CellTiter-Meiluncell Luminescent), tumor cell proliferation, H292; settings: Homo sapiens, NCI-H292, 96 h; for inhibition at 0.01 µM: read-out: Inhibition Rate at 10 nM (%); for inhibition at 0.5 µM: read-out: Inhibition Rate at 500 nM (%)
MDA-MB-231 = assay: Cell viability assay (CellTiter-Meiluncell Luminescent), tumor cell proliferation, MDA-MB-231; settings: Homo sapiens, MDA-MB-231, 96 h; for inhibition at 0.01 µM: read-out: Inhibition Rate at 10 nM (%); for inhibition at 0.5 µM: read-out: Inhibition Rate at 500 nM (%)
Method: as §2, §3, §1

SMILES	GSPT1 substrate protein remaining % (GSPT1)	IKZF1 substrate protein remaining % (IKZF1)	IKZF3 substrate protein remaining % (IKZF3)	IKZF2 substrate protein remaining % (IKZF2)	CK1α substrate protein remaining % (CK1α)	IC50 (MM.1S)	WEE1 substrate protein remaining % (WEE1)	IC50 (MGC803)	substrate protein remaining % GSPT1 (GSPT1)	substrate protein remaining % IKZF1 (IKZF1)	inhibition at 0.01 µM (MV-4-11)	inhibition at 0.5 µM (MV-4-11)	inhibition at 0.01 µM (H2228)	inhibition at 0.5 µM (H2228)	inhibition at 0.5 µM [1]	inhibition at 2 µM [1]	inhibition at 0.01 µM (H292)	inhibition at 0.5 µM (H292)	inhibition at 0.01 µM (MDA-MB-231)	inhibition at 0.5 µM (MDA-MB-231)	further results
O=C1CCN(N2Cc3cc(CN4CCN(c5cccc(Cl)c5Cl)CC4)ccc3C2=O)C(=O)N1 [GT-04853, 1-(5-((4-(2,3-dichlorophenyl)piperazin-1-yl)methyl)-1-oxoisoindolin-2-yl)dihydropyrimidine-2,4(1H,3H)-dione]	A ("A" is defined as 0% ≤ substrate protein remaining % ≤ 80%)	A ("A" is defined as 0% ≤ substrate protein remaining % ≤ 80%)	B ("B" is defined as 80%< substrate protein remaining %≤ 100%)	A ("A" is defined as 0% ≤ substrate protein remaining % ≤ 80%)	B ("B" is defined as 80%< substrate protein remaining %≤ 100%)	100 to 300 nM	A ("A" is defined as 0% ≤ substrate protein remaining % ≤ 80%)	500 to 1000 nM	–	–	–	–	–	–	–	–	–	–	–	–	–
O=C1CCN(N2Cc3cc(CN4CCN(C(c5ccccc5)c5ccccn5)CC4)ccc3C2=O)C(=O)N1 (centres unmarked) [GT-04890, 1-(1-oxo-5-((4-(phenyl(pyridin-2-yl)methyl)piperazin-1-yl)methyl)isoindolin-2-yl)dihydropyrimidine-2,4(1H,3H)-dione]	A ("A" is defined as 0% ≤ substrate protein remaining % ≤ 80%)	A ("A" is defined as 0% ≤ substrate protein remaining % ≤ 80%)	B ("B" is defined as 80%< substrate protein remaining %≤ 100%)	A ("A" is defined as 0% ≤ substrate protein remaining % ≤ 80%)	B ("B" is defined as 80%< substrate protein remaining %≤ 100%)	100 to 300 nM	B ("B" is defined as 80%< substrate protein remaining %≤ 100%)	500 to 1000 nM	–	–	–	–	–	–	–	–	–	–	–	–	–
O=C1CCN(N2Cc3cc(CN4CCN(c5ncnc6scc(-c7ccccc7)c56)CC4)ccc3C2=O)C(=O)N1 [GT-08065, 1-(1-oxo-5-((4-(5-phenylthieno[2,3-d]pyrimidin-4-yl)piperazin-1-yl)methyl)isoindolin-2-yl)dihydropyrimidine-2,4(1H,3H)-dione]	–	–	–	–	–	–	–	–	B (80%< substrate protein remaining %≤ 100%)	B (80%< substrate protein remaining %≤ 100%)	30 to 40%	10 to 18%	20 to 25%	25 to 30%	20 to 30%	60 to 80%	20 to 40%	20 to 40%	–	–	substrate protein remaining % IKZF3 (IKZF3): B (80%< substrate protein remaining %≤ 100%); substrate protein remaining % IKZF2 (IKZF2): A (0% ≤ substrate protein remaining % ≤ 80%); substrate protein remaining % CK1α (CK1α): B (80%< substrate protein remaining %≤ 100%); inhibition at 0.01 µM (MM.1S): 20 to 30%; inhibition at 0.5 µM (MM.1S): 20 to 30%; substrate protein remaining % WEE1 (WEE1): B (80%< substrate protein remaining %≤ 100%)
O=C1CCN(N2Cc3cc(CN4CCN(c5ncnc6sc7c(c56)CCC7)CC4)ccc3C2=O)C(=O)N1 [GT-08079, 1-(5-((4-(6,7-dihydro-5H-cyclopenta[4,5]thieno[2,3-d]pyrimidin-4-yl)piperazin-1-yl)methyl)-1-oxoisoindolin-2-yl)dihydropyrimidine-2,4(1H,3H)-dione]	–	–	–	–	–	–	–	–	A (0% ≤ substrate protein remaining % ≤ 80%)	B (80%< substrate protein remaining %≤ 100%)	40 to 60%	40 to 60%	15 to 20%	20 to 25%	20 to 30%	53 to 60%	20 to 40%	20 to 40%	18 to 25%	10 to 15%	substrate protein remaining % IKZF3 (IKZF3): B (80%< substrate protein remaining %≤ 100%); substrate protein remaining % IKZF2 (IKZF2): B (80%< substrate protein remaining %≤ 100%); substrate protein remaining % CK1α (CK1α): A (0% ≤ substrate protein remaining % ≤ 80%); substrate protein remaining % WEE1 (WEE1): A (0% ≤ substrate protein remaining % ≤ 80%)
O=C1CCN(N2Cc3cc(CN4CC=C(c5ncnc6sc(-c7ccccc7)cc56)CC4)ccc3C2=O)C(=O)N1 [GT-08173, 1-(1-oxo-5-((4-(6-phenylthieno[2,3-d]pyrimidin-4-yl)-3,6-dihydropyridin-1(2H)-yl)methyl)isoindolin-2-yl)dihydropyrimidine-2,4(1H,3H)-dione]	–	–	–	–	–	–	–	–	–	–	10 to 18%	80 to 100%	5 to 10%	40 to 60%	20 to 30%	53 to 60%	–	–	10 to 15%	60 to 80%	inhibition at 0.01 µM (MM.1S): -5 to 0%; inhibition at 0.5 µM (MM.1S): 80 to 100%
O=C1CCN(N2Cc3cc(CN4CC=C(c5ncnc6scc(-c7ccccc7)c56)CC4)ccc3C2=O)C(=O)N1 [GT-08174, 1-(1-oxo-5-((4-(5-phenylthieno[2,3-d]pyrimidin-4-yl)-3,6-dihydropyridin-1(2H)-yl)methyl)isoindolin-2-yl)dihydropyrimidine-2,4(1H,3H)-dione]	–	–	–	–	–	–	–	–	–	–	25 to 30%	10 to 18%	15 to 20%	20 to 25%	20 to 30%	53 to 60%	10 to 15%	20 to 40%	18 to 25%	25 to 40%	–
